According to ChEMBL document CHEMBL1124293, “2,4-Diamino-6,7-dimethoxyquinoline derivatives as alpha 1-adrenoceptor antagonists and antihypertensive agents” (J Med Chem, 1988):

How the values were obtained:
Rattus norvegicus [1] = assay: Percent reduction in Spontaneously hypertensive rat blood pressure after 4.5 hr of 3 mg/kg, po administration; type: functional
[2] = target: T1, Adrenergic receptor alpha-2 (Rattus norvegicus) (UniProt P22086+P19328+P22909); assay: Binding affinity towards alpha-2 adrenergic receptor from rat brain homogenate preparation by displacement of [3H]clonidine at 10E-6 M; type: tissue-based
Rattus norvegicus [3] = assay: Percent reduction in Spontaneously hypertensive rat blood pressure after 1 h of 3 mg/kg, po administration; type: functional
[4] = target: T2, Adrenergic receptor alpha-2 (Rattus norvegicus, UniProt P22086+P19328+P22909); assay: Binding affinity towards alpha-2 adrenergic receptor from rat brain homogenate preparation by displacement of [3H]clonidine; type: tissue-based
T2 sequence (P22086 whole entry): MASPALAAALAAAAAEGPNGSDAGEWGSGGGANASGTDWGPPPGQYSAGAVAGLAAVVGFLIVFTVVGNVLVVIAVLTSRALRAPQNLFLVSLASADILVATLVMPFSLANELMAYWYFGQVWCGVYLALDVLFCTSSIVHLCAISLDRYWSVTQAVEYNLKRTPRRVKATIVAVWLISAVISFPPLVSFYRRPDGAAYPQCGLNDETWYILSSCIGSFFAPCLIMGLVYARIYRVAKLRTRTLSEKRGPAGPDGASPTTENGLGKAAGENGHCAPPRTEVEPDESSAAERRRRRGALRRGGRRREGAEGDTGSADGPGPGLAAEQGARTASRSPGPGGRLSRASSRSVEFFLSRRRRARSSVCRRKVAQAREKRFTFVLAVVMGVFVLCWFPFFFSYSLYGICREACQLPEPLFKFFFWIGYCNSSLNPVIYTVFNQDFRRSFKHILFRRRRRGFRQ
T2 sequence (P19328 whole entry): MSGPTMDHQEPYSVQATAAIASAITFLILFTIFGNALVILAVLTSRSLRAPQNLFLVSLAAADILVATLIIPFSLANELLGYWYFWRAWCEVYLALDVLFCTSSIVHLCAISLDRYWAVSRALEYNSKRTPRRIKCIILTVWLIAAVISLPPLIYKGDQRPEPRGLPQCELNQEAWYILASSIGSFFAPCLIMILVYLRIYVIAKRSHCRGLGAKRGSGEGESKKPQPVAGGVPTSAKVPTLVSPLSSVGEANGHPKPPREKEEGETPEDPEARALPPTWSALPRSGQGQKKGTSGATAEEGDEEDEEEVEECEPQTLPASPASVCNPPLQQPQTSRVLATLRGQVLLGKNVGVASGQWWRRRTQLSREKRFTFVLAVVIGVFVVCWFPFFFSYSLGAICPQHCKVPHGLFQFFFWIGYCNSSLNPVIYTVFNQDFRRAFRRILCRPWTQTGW
T2 sequence (P22909 whole entry): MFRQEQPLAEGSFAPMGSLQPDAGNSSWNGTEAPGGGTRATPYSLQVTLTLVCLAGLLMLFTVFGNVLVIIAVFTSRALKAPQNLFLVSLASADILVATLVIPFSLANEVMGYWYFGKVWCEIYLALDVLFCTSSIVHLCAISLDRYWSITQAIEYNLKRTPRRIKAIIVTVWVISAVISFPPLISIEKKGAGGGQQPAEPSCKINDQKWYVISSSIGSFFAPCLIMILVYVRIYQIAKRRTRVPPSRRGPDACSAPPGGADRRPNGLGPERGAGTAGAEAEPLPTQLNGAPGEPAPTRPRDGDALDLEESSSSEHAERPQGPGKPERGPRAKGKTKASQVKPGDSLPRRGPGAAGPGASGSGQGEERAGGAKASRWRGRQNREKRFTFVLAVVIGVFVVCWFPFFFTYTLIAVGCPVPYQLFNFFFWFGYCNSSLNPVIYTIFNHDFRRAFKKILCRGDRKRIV

[5] = target: T3, Adrenergic receptor alpha-1 (Rattus norvegicus, UniProt P15823+P23944+P43140); assay: Binding affinity towards alpha-1 adrenergic receptor from rat brain homogenate preparation by displacement of [3H]prazosin; type: tissue-based
T3 sequence (P15823 whole entry): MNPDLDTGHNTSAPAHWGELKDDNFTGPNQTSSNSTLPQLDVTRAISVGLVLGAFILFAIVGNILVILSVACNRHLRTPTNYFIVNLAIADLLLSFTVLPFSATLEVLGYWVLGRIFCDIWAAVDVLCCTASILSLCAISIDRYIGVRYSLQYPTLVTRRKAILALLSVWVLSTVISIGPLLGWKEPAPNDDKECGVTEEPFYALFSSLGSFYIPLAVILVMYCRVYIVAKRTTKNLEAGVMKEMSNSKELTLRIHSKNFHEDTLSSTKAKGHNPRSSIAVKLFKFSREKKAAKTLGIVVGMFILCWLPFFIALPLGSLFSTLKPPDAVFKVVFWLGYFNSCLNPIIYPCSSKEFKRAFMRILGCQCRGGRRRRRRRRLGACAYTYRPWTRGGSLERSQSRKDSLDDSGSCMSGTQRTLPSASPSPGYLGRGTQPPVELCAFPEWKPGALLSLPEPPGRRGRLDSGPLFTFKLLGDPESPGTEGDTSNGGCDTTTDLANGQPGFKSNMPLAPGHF
T3 sequence (P23944 whole entry): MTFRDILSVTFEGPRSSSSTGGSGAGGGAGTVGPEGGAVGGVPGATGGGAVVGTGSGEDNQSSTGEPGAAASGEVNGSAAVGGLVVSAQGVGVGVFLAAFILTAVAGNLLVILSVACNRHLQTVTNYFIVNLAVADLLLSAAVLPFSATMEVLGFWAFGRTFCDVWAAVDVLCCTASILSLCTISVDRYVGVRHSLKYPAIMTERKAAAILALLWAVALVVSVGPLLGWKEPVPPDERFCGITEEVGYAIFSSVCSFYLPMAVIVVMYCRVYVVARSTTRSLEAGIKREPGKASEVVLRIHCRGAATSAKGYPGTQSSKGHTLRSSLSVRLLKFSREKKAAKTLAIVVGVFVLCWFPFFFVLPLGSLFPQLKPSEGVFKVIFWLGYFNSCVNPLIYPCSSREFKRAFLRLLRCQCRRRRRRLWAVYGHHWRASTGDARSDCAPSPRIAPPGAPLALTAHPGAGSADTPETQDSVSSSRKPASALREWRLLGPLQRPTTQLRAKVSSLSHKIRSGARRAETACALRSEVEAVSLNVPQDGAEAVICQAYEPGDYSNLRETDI
T3 sequence (P43140 whole entry): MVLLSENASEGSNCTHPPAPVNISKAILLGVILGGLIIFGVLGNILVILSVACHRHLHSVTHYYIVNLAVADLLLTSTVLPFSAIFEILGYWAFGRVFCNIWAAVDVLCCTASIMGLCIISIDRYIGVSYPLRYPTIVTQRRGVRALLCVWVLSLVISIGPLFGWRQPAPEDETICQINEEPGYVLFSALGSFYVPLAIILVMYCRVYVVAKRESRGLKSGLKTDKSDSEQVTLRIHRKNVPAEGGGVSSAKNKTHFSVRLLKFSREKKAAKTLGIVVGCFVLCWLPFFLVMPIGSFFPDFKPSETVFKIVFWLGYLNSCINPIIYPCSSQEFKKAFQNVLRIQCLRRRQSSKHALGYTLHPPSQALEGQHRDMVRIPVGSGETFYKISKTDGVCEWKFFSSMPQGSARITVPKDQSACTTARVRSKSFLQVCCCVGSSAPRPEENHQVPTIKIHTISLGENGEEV

[6] = target: T1, Adrenergic receptor alpha-2 (Rattus norvegicus); assay: Binding affinity towards alpha-2 adrenergic receptor from rat brain homogenate preparation by displacement of [3H]clonidine at 10e-6 M concentration; type: tissue-based
Rattus norvegicus [7] = assay: Percent reduction in Spontaneously hypertensive rat blood pressure after 1 hr of 3 mg/kg, po administration; type: functional
[8] = target: T1, Adrenergic receptor alpha-2 (Rattus norvegicus); assay: Binding affinity towards alpha-2 adrenergic receptor from rat brain homogenate preparation by displacement of [3H]clonidine at 10e-6 M; type: tissue-based

Displacement [2] [%] | Ki [4] [nM] | Ki [5] [nM] | Displacement [6] [%] | Displacement [8] [%] | Structure (SMILES) | Reduction (Rattus norvegicus [1]) [%] | Reduction (Rattus norvegicus [3]) [%] | Reduction (Rattus norvegicus [7]) [%]
< 50 |  |  |  |  | COc1cc2nc(N(C)C)cc(N)c2cc1OC | 11 | 12 | 
 | 51.6 | 1.72 |  |  | COc1cc2nc(N3CCN(c4ccccc4)CC3)cc(N)c2cc1OC | 24 | 8 | 
 |  | 0.42 | < 50 |  | CCOc1ccnc(N2CCN(c3cc(N)c4cc(OC)c(OC)cc4n3)CC2)n1 | 22 | 19 | 
 |  | 0.44 | < 50 |  | CCCNC(=O)N1CCN(c2cc(N)c3cc(OC)c(OC)cc3n2)CC1 | 8 | 3 | 
 |  | 1.17 |  |  | COc1cc2nc(N3CCN(C(C)=O)CC3)cc(N)c2cc1OC | 7 | 4 | 
 |  | 0.81 | < 50 |  | COc1cc2nc(N3CCN(C(=O)C4COc5ccccc5O4)CC3)cc(N)c2cc1OC (stereo not drawn) | 13 | 6 | 
 |  | 0.29 | < 50 |  | C=CCNC(=O)N1CCN(c2cc(N)c3cc(OC)c(OC)cc3n2)CC1 | 17 | 15 | 
 |  | 2.93 | < 50 |  | COc1cc2nc(N3CCCCC3)cc(N)c2cc1OC | 6 | 6 | 
 | 55.3 | 0.46 |  |  | COc1cc2nc(N3CCN(c4nccc(N(C)C)n4)CC3)cc(N)c2cc1OC | 19 | 16 | 
 |  |  |  |  | COc1cc2nc(N3CCN(C(=O)c4ccco4)CC3)nc(N)c2cc1OC [PRAZOSIN] | 15 | 24 | 
 |  |  |  |  | COc1cc2nc(N3CCN(Cc4ccccc4)CC3)cc(N)c2cc1OC | 10 | 8 | 
 |  | 0.63 | < 50 |  | COc1cc2nc(N3CCN(c4nccc(C)n4)CC3)cc(N)c2cc1OC | 8 | 10 | 
 | 66 | 0.34 |  |  | COc1cc2nc(N3CCN(C(=O)Nc4ccccc4)CC3)cc(N)c2cc1OC | 25 | 20 | 
 |  | 0.14 | < 50 |  | COc1cc2nc(N3CCN(C(=O)c4ccco4)CC3)cc(N)c2cc1OC | 25 |  | 32
 |  | 30.06 | < 50 |  | COc1cc2nc(N3CCNCC3)cc(N)c2cc1OC | 14 | 11 | 
 |  | 0.49 |  | < 50 | COc1cc2nc(N3CCN(C(=O)c4ccccc4)CC3)cc(N)c2cc1OC | 19 | 19 | 
